Assay results reported in ChEMBL document CHEMBL5724914, “Linking interpersonal differences in gut microbiota composition and drug biotransformation activity” (2024).

Assays:
[1] = (§1) The drug is tested on Z-025 corresponding to rabbit gut metagenome with ENA study accession number: PRJEB37062 and ENA sample accession number: ERS12561824 for biotransformation under anaerobic condition. The drug concentrations were measured over 9 timepoints collected between 0 and 24 hours of incubation by liquid-chromatography-coupled mass spectrometry (LC–MS); conditions: 2 µM
[2] = as §1, with “Z-003” for “Z-025”, “pig” for “rabbit”, “ERS12561803” for “ERS12561824”; conditions: 2 µM
[3] = as §1, with “WLS-370” for “Z-025”, “human” for “rabbit”, “ERS12561793” for “ERS12561824”; conditions: 2 µM
[4] = as §1, with “WLS-310” for “Z-025”, “human” for “rabbit”, “ERS12561785” for “ERS12561824”; conditions: 2 µM
[5] = as §1, with “WLS-240” for “Z-025”, “human” for “rabbit”, “ERS12561773” for “ERS12561824”; conditions: 2 µM
[6] = as §1, with “WLS-220” for “Z-025”, “human” for “rabbit”, “ERS12561769” for “ERS12561824”; conditions: 2 µM
[7] = as §1, with “WLS-090” for “Z-025”, “human” for “rabbit”, “ERS12561753” for “ERS12561824”; conditions: 2 µM
[8] = as §1, with “WLS-073” for “Z-025”, “human” for “rabbit”, “ERS12561749” for “ERS12561824”; conditions: 2 µM
[9] = as §1, with “WLS-039” for “Z-025”, “human” for “rabbit”, “ERS12561746” for “ERS12561824”; conditions: 2 µM
[10] = as §1, with “WLS-038” for “Z-025”, “human” for “rabbit”, “ERS12561745” for “ERS12561824”; conditions: 2 µM
[11] = as §1, with “WLS-006” for “Z-025”, “human” for “rabbit”, “ERS12561741” for “ERS12561824”; conditions: 2 µM
[12] = human gut metagenome, 24 h, 2 µM
[13] = human gut metagenome, 24 h, 2 µM; remark: listed apart in the source
[14] = human gut metagenome, 24 h, 2 µM; remark: listed apart in the source
[15] = human gut metagenome, 24 h, 2 µM; remark: listed apart in the source
[16] = human gut metagenome, 24 h, 2 µM; remark: listed apart in the source
[17] = human gut metagenome, 24 h, 2 µM; remark: listed apart in the source
[18] = human gut metagenome, 24 h, 2 µM; remark: listed apart in the source
[19] = as §1, with “Z-018” for “Z-025”, “pig” for “rabbit”, “ERS12561817” for “ERS12561824”; conditions: 2 µM
[20] = as §1, with “Z-006” for “Z-025”, “mouse” for “rabbit”, “ERS12561806” for “ERS12561824”; conditions: 2 µM
Further: call rule not given here.

Bacterial Biotransformation [1] | Bacterial Biotransformation [2] | Bacterial Biotransformation [3] | Bacterial Biotransformation [4] | Bacterial Biotransformation [5] | Bacterial Biotransformation [6] | Bacterial Biotransformation [7] | Bacterial Biotransformation [8] | Bacterial Biotransformation [9] | Bacterial Biotransformation [10] | Bacterial Biotransformation [11] | Bacterial Biotransformation [12] | Bacterial Biotransformation [13] | Bacterial Biotransformation [14] | Bacterial Biotransformation [15] | Bacterial Biotransformation [16] | Bacterial Biotransformation [17] | Bacterial Biotransformation [18] | Bacterial Biotransformation [19] | Bacterial Biotransformation [20] | Structure (SMILES)
Compound metabolized | Compound metabolized | Compound NOT metabolized | Compound NOT metabolized | Compound NOT metabolized | Compound NOT metabolized | Compound NOT metabolized | Compound NOT metabolized | Compound NOT metabolized | Compound NOT metabolized | Compound NOT metabolized | Compound NOT metabolized | Compound NOT metabolized | Compound NOT metabolized | Compound NOT metabolized | Compound NOT metabolized | Compound NOT metabolized | Compound NOT metabolized |  |  | CN1CCc2cccc3c2[C@H]1Cc1ccc(O)c(O)c1-3 [APOMORPHINE]
Compound metabolized | Compound NOT metabolized | Compound NOT metabolized | Compound NOT metabolized | Compound NOT metabolized | Compound NOT metabolized | Compound NOT metabolized | Compound NOT metabolized | Compound NOT metabolized | Compound NOT metabolized | Compound NOT metabolized | Compound NOT metabolized |  | Compound NOT metabolized | Compound NOT metabolized | Compound NOT metabolized | Compound NOT metabolized | Compound NOT metabolized | Compound metabolized | Compound NOT metabolized | CC[C@H](C)C(=O)O[C@H]1C[C@@H](C)C=C2C=C[C@H](C)[C@H](CC[C@@H]3C[C@@H](O)CC(=O)O3)[C@H]21 [LOVASTATIN]
Compound metabolized | Compound metabolized | Compound metabolized | Compound metabolized | Compound metabolized | Compound metabolized | Compound metabolized |  | Compound metabolized | Compound metabolized | Compound metabolized | Compound metabolized | Compound metabolized | Compound metabolized | Compound metabolized | Compound metabolized | Compound metabolized |  | Compound metabolized | Compound metabolized | COc1c2occc2cc2ccc(=O)oc12 [METHOXSALEN]
 | Compound NOT metabolized | Compound NOT metabolized | Compound NOT metabolized | Compound NOT metabolized | Compound NOT metabolized | Compound NOT metabolized | Compound NOT metabolized | Compound NOT metabolized | Compound NOT metabolized | Compound NOT metabolized | Compound NOT metabolized | Compound NOT metabolized | Compound NOT metabolized | Compound NOT metabolized | Compound NOT metabolized | Compound NOT metabolized | Compound NOT metabolized | Compound NOT metabolized | Compound NOT metabolized | COc1ccccc1N1CCN(CC(O)COc2cccc3ccccc23)CC1 (stereo not drawn) [NAFTOPIDIL]
Compound NOT metabolized | Compound NOT metabolized | Compound NOT metabolized | Compound NOT metabolized | Compound NOT metabolized | Compound NOT metabolized | Compound NOT metabolized | Compound NOT metabolized | Compound NOT metabolized | Compound NOT metabolized | Compound NOT metabolized | Compound NOT metabolized | Compound NOT metabolized | Compound NOT metabolized | Compound NOT metabolized | Compound NOT metabolized |  | Compound NOT metabolized | Compound NOT metabolized | Compound NOT metabolized | CN(C)CCc1c[nH]c2ccc(Cn3cncn3)cc12.O=C(O)c1ccccc1 [RIZATRIPTAN BENZOATE]
Compound metabolized | Compound metabolized | Compound metabolized | Compound metabolized | Compound metabolized | Compound metabolized |  | Compound metabolized | Compound metabolized | Compound metabolized | Compound metabolized | Compound metabolized | Compound metabolized | Compound metabolized | Compound metabolized |  | Compound metabolized | Compound NOT metabolized | Compound metabolized | Compound metabolized | COc1ccc2[nH]c([S+]([O-])Cc3ncc(C)c(OC)c3C)nc2n1 (stereo not drawn) [TENATOPRAZOLE]
Compound NOT metabolized | Compound metabolized | Compound NOT metabolized | Compound NOT metabolized | Compound NOT metabolized | Compound NOT metabolized | Compound NOT metabolized | Compound NOT metabolized | Compound NOT metabolized | Compound NOT metabolized | Compound metabolized | Compound NOT metabolized | Compound NOT metabolized | Compound NOT metabolized | Compound NOT metabolized | Compound NOT metabolized | Compound NOT metabolized | Compound NOT metabolized |  | Compound NOT metabolized | Cc1ccc(/C(=C\CN2CCCC2)c2ccccn2)cc1 [TRIPROLIDINE]
Compound metabolized | Compound NOT metabolized | Compound NOT metabolized | Compound NOT metabolized | Compound NOT metabolized | Compound NOT metabolized | Compound NOT metabolized | Compound NOT metabolized |  | Compound NOT metabolized | Compound metabolized | Compound NOT metabolized | Compound NOT metabolized | Compound metabolized | Compound NOT metabolized | Compound NOT metabolized | Compound NOT metabolized | Compound metabolized | Compound NOT metabolized | Compound NOT metabolized | Cc1cn([C@H]2C[C@H](N=[N+]=[N-])[C@@H](CO)O2)c(=O)[nH]c1=O [ZIDOVUDINE]

Structure (SMILES) | Bacterial Biotransformation [1] | Bacterial Biotransformation [2] | Bacterial Biotransformation [3] | Bacterial Biotransformation [4] | Bacterial Biotransformation [5] | Bacterial Biotransformation [6] | Bacterial Biotransformation [7] | Bacterial Biotransformation [8] | Bacterial Biotransformation [9] | Bacterial Biotransformation [10] | Bacterial Biotransformation [11] | Bacterial Biotransformation [12] | Bacterial Biotransformation [13] | Bacterial Biotransformation [14] | Bacterial Biotransformation [15] | Bacterial Biotransformation [16] | Bacterial Biotransformation [17] | Bacterial Biotransformation [18] | Bacterial Biotransformation [19] | Bacterial Biotransformation [20]
Cc1nc2n(c(=O)c1CCN1CCC(c3noc4cc(F)ccc34)CC1)CCCC2 [RISPERIDONE] | Compound metabolized | Compound metabolized | Compound metabolized | Compound metabolized | Compound metabolized | Compound metabolized | Compound metabolized |  | Compound metabolized | Compound metabolized | Compound metabolized | Compound metabolized | Compound metabolized | Compound metabolized | Compound metabolized | Compound metabolized | Compound metabolized | Compound metabolized | Compound metabolized | Compound metabolized
